From US6500846B1, “CDK inhibitors having flavone structure” (LG Chemical, Ltd., priority 1998, dated 2002)

How the values were obtained:
[1] = biological target: T1, CDK2/cyclin A (Homo sapiens, UniProt P24941); test: Inhibitory activity against CDK2/cyclin A enzyme (GST-RB phosphorylation, P32-γ-ATP, scintillation counting); assay type: biochemical; conditions: 100 μM ATP, GST-RB substrate, 30° C. 30 minutes
T1 construct: made in house; host or cells: insect cells infected with baculoviruses
Description: (§1) Analysis of inhibitory activity against CDK2/cyclin A and CDK4/cyclin D1 enzyme.
(§2) The inhibitory activity against CDK2 is measured by referring to Kitagawa, M. et al., Oncogene 9:2549, 1994 and the inhibitory activity against CDK4 is measured by referring to Carlson, B. A. et al., Cancer Research 56:2473,1996.
(§3) As for CDK2, either the extract from the insect cell infected both with baculovirus which expresses CDK2 gene and baculovirus which expresses cyclin A gene or the active enzyme which had been purified therefrom was used. CDK4 enzyme was also obtained from the insect cell infected both with baculovirus expressing CDK4 gene and baculovirus expressing cyclin D1 gene. As the substrate for CDK2, either histon H1 or Rb protein was used. Rb protein was also used as the substrate for CDK4.
(§4) Specifically the activities of enzymes CDK2/cyclin A and CDK4/cyclin D1 were determined according to the following procedure.
(§5) 100 ng of enzyme was reacted in a total 1000 μl of 20 mM Tris (pH 8.0), 100 mM NaCl, 10 mM MgCl2 buffer solution containing 20 μg of GST-RB protein, 100 μM of ATP and 5 μCi of P32-γ-ATP at 30° C. for 30 minutes. Then, the enzyme reaction was stopped by adding EDTA to a concentration of 20 mM. Subsequently, 30 μl of 50% glutathione bead (purchased from Pharmacia) was added to attach GST-RB to the bead, which was washed three times with 20mM Tris (pH 8.0), 100 mM NaCl, 10 mM EDTA solution, and then scintillation counting was carried out. To analyze the inhibitory activity of the compound, the inhibitor having a proper concentration was added to the enzyme reaction solution, and then the enzyme activity was measured according to the above method.
(§6) The inhibitory activity of the compound of formula (1) according to the present invention against CDK2 and CDK4 is represented as IC50 value. The compounds which are not included in Examples(compound 63, 64, 65 and 66) were synthesized and purified according to the same procedure as examples, and then IC50 thereof was measured.

[2] = biological target: T2, CDK4/cyclin D1 (Homo sapiens, UniProt P11802); test: Inhibitory activity against CDK4/cyclin D1 enzyme (GST-RB phosphorylation, P32-γ-ATP, scintillation counting); assay type: biochemical; conditions: CDK4/cyclin D1, 100 μM ATP, GST-RB substrate, 30° C. 30 minutes
T2 construct: made in house; host or cells: insect cells infected with baculoviruses
Description: as §1, §2, §3, §4, §5, §6

[3] = in vivo; conditions: male, ICR, mouse, po
Description: The acute oral toxcities of the compounds 14, 17, 28, 39, 51 and 57 each of which is obtained in Examples 14, 17, 73,84, 96 and 102, respectively are investigated in the following.
Solutions containing a compound in several different concentrations from each other were prepared, and they were administered orally to ICR male mouse with a dose of 10 ml/kg.
After administration, lethality and symptoms for 7 days were observed, and LD50 (mg/kg) was calculated according to Litchfield-Wilcoxon' method.

T2 sequence (P11802 whole entry, species assumed): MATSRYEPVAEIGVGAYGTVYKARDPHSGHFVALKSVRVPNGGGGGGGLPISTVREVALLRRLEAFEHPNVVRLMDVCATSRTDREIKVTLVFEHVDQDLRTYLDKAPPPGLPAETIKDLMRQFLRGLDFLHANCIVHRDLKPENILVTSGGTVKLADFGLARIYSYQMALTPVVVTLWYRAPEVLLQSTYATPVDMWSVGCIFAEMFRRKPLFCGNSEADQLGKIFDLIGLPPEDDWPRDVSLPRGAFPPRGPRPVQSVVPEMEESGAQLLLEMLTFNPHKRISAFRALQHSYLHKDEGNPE
T2 sequence (P24385 whole entry partner, species assumed): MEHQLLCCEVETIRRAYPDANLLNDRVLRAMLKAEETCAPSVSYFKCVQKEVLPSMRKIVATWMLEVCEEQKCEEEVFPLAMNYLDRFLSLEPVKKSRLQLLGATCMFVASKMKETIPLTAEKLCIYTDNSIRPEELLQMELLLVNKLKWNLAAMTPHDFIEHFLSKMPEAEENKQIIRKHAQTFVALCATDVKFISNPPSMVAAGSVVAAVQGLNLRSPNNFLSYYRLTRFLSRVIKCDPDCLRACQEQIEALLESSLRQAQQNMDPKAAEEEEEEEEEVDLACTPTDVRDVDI

Row | Structure (SMILES) | IC50 [1] | IC50 [2] | LD50 at 7 days [3]
1 | O=C(NC(=O)c1ccccc1)Nc1ccc2oc(-c3ccc(O)c(O)c3)c(O)c(=O)c2c1 [Compound 57, N-benzoyl-N′-[2-(3,4-dihydroxyphenyl)-3-hydroxy-4-oxo-4H-chromen-6-yl]urea] | 22.4 µM | 18 µM | > 3000 mg/kg
2 | CC(=O)Nc1ccc2oc(-c3ccc(O)c(O)c3)c(O)c(=O)c2c1 [Compound 51, N-[2-(3,4-dihydroxyphenyl)-3-hydroxy-4-oxo-4H-chromen-6-yl]acetamide] | 5.6 µM | 5.6 µM | > 3000 mg/kg
3 | O=c1c(O)c(-c2ccc(O)c(O)c2)oc2ccc(NS(=O)(=O)c3ccc(C(F)(F)F)cc3)cc12 [Compound 39, N-[2-(3,4-dihydroxyphenyl)-3-hydroxy-4-oxo-4H-chromen-6-yl]-4-(trifluoromethyl)benzenesulfonamide] | 55 µM | 6.4 µM | > 3000 mg/kg
4 | Cc1ccc(S(=O)(=O)Nc2ccc3oc(-c4ccc(O)c(O)c4)c(O)c(=O)c3c2)cc1 [Compound 28, N-[2-(3,4-dihydroxyphenyl)-3-hydroxy-4-oxo-4H-chromen-6-yl]-4-methylbenzenesulfonamide] | 56 µM | 7.8 µM | > 3000 mg/kg
5 | O=c1c(O)c(-c2ccc(O)c(O)c2)oc2ccc(O)cc12 [Compound 14, 2-(3,4-dihydroxyphenyl)-3,6-dihydroxy-4H-chromen-4-one] | < 5 µM | < 5 µM | > 3000 mg/kg
6 | O=c1c(O)c(-c2ccc(O)c(O)c2)oc2ccc(F)cc12 [Compound 17, 6-fluoro-2-(3,4-dihydroxyphenyl)-3-hydroxy-4H-chromen-4-one] | < 10 µM | < 10 µM | > 3000 mg/kg
7 | Nc1ccc(NC(=O)Nc2ccc3oc(-c4ccc(O)c(O)c4)c(O)c(=O)c3c2)cc1 [Compound 62, N-(4-aminophenyl)-N′-[2-(3,4-dihydroxyphenyl)-3-hydroxy-4-oxo-4H-chromen-6-yl]urea] | 2.6 µM | 2.3 µM | 
8 | O=C(O)c1ccc(S(=O)(=O)Nc2ccc3oc(-c4ccc(O)c(O)c4)c(O)c(=O)c3c2)cc1 [Compound 45, 4-({[2-(3,4-dihydroxyphenyl)-3-hydroxy-4-oxo-4H-chromen-6-yl]amino}sulfonyl)benzoic acid] | 28.2 µM | 6 µM | 
9 | O=C(N1CCc2ccc(S(=O)(=O)Nc3ccc4oc(-c5ccc(O)c(O)c5)c(O)c(=O)c4c3)cc2C1)C(F)(F)F [Compound 44, N-[2-(3,4-dihydroxyphenyl)-3-hydroxy-4-oxo-4H-chromen-6-yl]-2-(2,2,2-trifluoroacetyl)-1,2,3,4-tetrahydro-7-isoquinolinesulfonamide] | 4.1 µM | 2.3 µM | 
